Measurements taken from paper PMC6100472, “Cyclodextrins: Assessing the Impact of Cavity Size, Occupancy, and Substitutions on Cytotoxicity and Cholesterol Homeostasis” (Molecules : A Journal of Synthetic Chemistry and Natural …, 2018).
≈ marks a conversion by molar mass, not a printed value.

Assays:
[1] = system: primary fibroblast cells from an NPC patient (NPC1 mutant); assay: Intracellular cholesterol distribution by Filipin III staining; type: cell-based, human; conditions: 1 mM, 72 h, NPC1 mutant primary fibroblasts
Description: We determined the effects of the CD derivatives on intracellular cholesterol accumulation in primary fibroblast cells derived from an NPC patient using Filipin III, a fluorescent compound that specifically binds to unesterified cholesterol. After treatment with the CD derivatives (1 mM) for 72 h, the cells were examined for the fluorescent intensity of Filipin III using a fluorescence microscope. […] Studies are underway to define the molecular mechanisms by which HPβCD and HPγCD alleviate the cholesterol-trafficking defect. Cells were incubated in medium containing CD derivatives at 1 mM for 72 h. Cells were washed three times with PBS and fixed with 3.7% paraformaldehyde for 30 min at room temperature. After washing with PBS, cells were stained with PBS containing Filipin III (12.5 μg/mL) for 30–45 min at room temperature in the dark. After washing with PBS and applying a mounting medium, cells were analyzed using a Nikon TE2000 widefield microscope (Nikon, Melville, NY, USA).

[2] = system: isolated human erythrocytes; assay: In vitro hemolysis test using isolated human erythrocytes; type: cell-based
Description: Venous blood was taken from healthy volunteers and placed in plastic tubes containing sodium–citrate anti-coagulant. The cell fraction including erythrocytes was separated from the plasma components by centrifugation (2500× g, 10 min, 20 °C), washed three times with phosphate buffered saline (PBS) solution, and re-suspended in the same solution. The erythrocyte count was adjusted to 10^9 per mL under the control of a Laborscale cell analyzer (Medicor, Hungary). The test was performed in standard Eppendorf-type plastic tubes, where the incubation mixture consisted of 1.3 mL of reagent solution containing increasing concentrations of CDs dissolved in PBS, 0.05 mL of erythrocyte suspension containing 5 × 10^7 red blood cells, and 0.05 mL of 3% Na2CO3. After 10 min incubation at 37 °C, samples were mixed and centrifuged at 5000x g. The absorbance of the released hemoglobin in the supernatant was determined at 540 nm spectrophotometrically. As a reference, total (100%) hemolysis was obtained by replacing PBS with distilled water. CD-induced hemolysis was related to this reference value and expressed as percent hemolysis. All of the experiments included at least 10 different concentrations of the test materials in triplicate runs to allow the plotting of dose-effect curves from multi-point determinations, and to calculate EC50 values. In order to investigate the protective effect of plasma components, aliquots of PBS were replaced by 50 µL, 100 µL, and 200 µL of blood plasma in the incubation mixture. Plasma protein concentration was determined by the biuret method.

[3] = system: HeLa cells; assay: MTS cell viability assay (CellTiter 96 AQueous One) in HeLa cells; type: cell-based, human; conditions: 10 mM, 24 h
Description: (§1) The CD/lipid inclusion complexes were then tested for their ability to reduce the metabolic activity (or cell viability) in HEK293T cells and HeLa cells (Figure 4) using the CellTiter 96 AQueous One Solution Cell Proliferation Assay Kit (Promega). Cells were treated with 10 mM of the free RAMEB, cholesterol-loaded RAMEB, linoleic acid-loaded RAMEB, or β-sitosterol-loaded RAMEB. At 24 h after treatment, a cell viability assay was conducted, and the absorbance at 490 nm was measured to determine the levels of the reaction products that were generated in metabolically active cells. Triton X-100 (TX) was included as a positive control for cytotoxicity. […]
(§2) The effects of CD treatment on cell viability and cytotoxicity were determined using the CellTiter 96 AQueous One Solution Cell Proliferation Assay Kit (Promega) and LDH Cytotoxicity Assay Kit (Thermo Fisher Scientific), respectively. […] The absorbance of the plates was recorded at 490 nm with an xMark microplate absorbance spectrophotometer (Bio-Rad, Hercules, CA, USA). […] Extracellular LDH in the media can be quantified by a coupled enzymatic reaction in which LDH catalyzes the conversion of lactate to pyruvate via nicotinamide adenine dinucleotide (NAD^+) reduction to NADH. Diaphorase then uses NADH to reduce a tetrazolium salt (INT) to a red formazan product that can be measured at 490 nm. […]

[4] = system: HEK293T cells; assay: MTS cell viability assay (CellTiter 96 AQueous One) in HEK293T cells; type: cell-based, human; conditions: 10 mM, 24 h
Description: as §1, §2

[5] = system: whole blood (erythrocytes); assay: In vitro hemolysis test in whole blood samples; type: cell-based, human; conditions: RBC count 1 × 10^9
Description: For these experiments, healthy volunteers with identical main blood groups [A, Rhesus blood factor D (Rh) positive] but differing in their plasma lipid contents were selected. Plasma and cellular blood components were separated from the freshly taken sodium-citrated blood by centrifugation (2500× g, 10 min, 4 °C). The sedimented composite cellular fraction (red and white blood cells, and platelets) was washed with PBS, then re-suspended either in their own original plasma or in the foreign plasma with the identical blood group, resulting in erythrocyte/plasma combinations of normal cholesterol/lipid levels or higher cholesterol/lipid levels. The erythrocyte count was adjusted to 4 × 10^9 per mL in the blood. In this case, hemolysis test mixtures contained 0.04 mL of test solution with increasing concentrations of methyl-β-CD, 0.25 mL of blood, and 0.01 mL of 3% Na2CO3. Incubation and subsequent centrifugation conditions were identical to the above. Aliquots of the supernatant were diluted using PBS (containing 3% Na2CO3), and their hemoglobin content was determined. Again, dose-effect curves were constructed from multi-point determinations of triplicate runs. The levels of cholesterol, high-density lipoprotein (HDL), and triglyceride in plasma were determined by the use of standard laboratory procedures.

[6] = isolated human erythrocytes in PBS, no plasma
[7] = isolated human erythrocytes in PBS, plasma 50 μL
[8] = isolated human erythrocytes in PBS, plasma 100 μL
[9] = isolated human erythrocytes in PBS, plasma 200 μL

Compound | Effect on intracellular cholesterol accumulation (Filipin III fluorescence) [1] | Hemolytic EC50 [2, 6] [µg/mL] | Hemolytic EC50 [2, 7] [µg/mL] | Hemolytic EC50 [2, 8] [µg/mL] | Hemolytic EC50 [2, 9] [µg/mL] | also measured
CC(O)COC[C@H]1O[C@@H]2O[C@H]3[C@H](O)[C@@H](O)[C@@H](O[C@H]4[C@H](O)[C@@H](O)[C@@H](O[C@H]5[C@H](O)[C@@H](O)[C@@H](O[C@H]6[C@H](O)[C@@H](O)[C@@H](O[C@H]7[C@H](O)[C@@H](O)[C@@H](O[C@H]8[C@H](O)[C@@H](O)[C@@H](O[C@H]1[C@H](O)[C@H]2O)O[C@@H]8COCC(C)O)O[C@@H]7COCC(C)O)O[C@@H]6COCC(C)O)O[C@@H]5COCC(C)O)O[C@@H]4COCC(C)O)O[C@@H]3COCC(C)O (stereo partly drawn) [HPβCD, Hydroxypropyl-β-cyclodextrin] | reduction in cholesterol accumulation | – | – | – | – | –
Hydroxypropyl-γ-cyclodextrin [HPγCD] | reduction in cholesterol accumulation | – | – | – | – | –
COC[C@H]1O[C@@H]2O[C@H]3[C@H](O)[C@@H](OC)[C@@H](O[C@H]4[C@H](O)[C@@H](OC)[C@@H](O[C@H]5[C@H](O)[C@@H](OC)[C@@H](O[C@H]6[C@H](O)[C@@H](OC)[C@@H](O[C@H]7[C@H](O)[C@@H](OC)[C@@H](O[C@H]8[C@H](O)[C@@H](OC)[C@@H](O[C@H]1[C@H](O)[C@H]2OC)O[C@@H]8COC)O[C@@H]7COC)O[C@@H]6COC)O[C@@H]5COC)O[C@@H]4COC)O[C@@H]3COC [DIMEB-95, Heptakis (2,6-di-O-methyl)-β-cyclodextrin] | – | 1200 ± 300 | 4700 ± 400 | 6500 ± 600 | 8800 ± 500 | –
COC[C@H]1O[C@@H]2O[C@H]3[C@H](OC)[C@@H](OC)[C@@H](O[C@H]4[C@H](OC)[C@@H](OC)[C@@H](O[C@H]5[C@H](OC)[C@@H](OC)[C@@H](O[C@H]6[C@H](OC)[C@@H](OC)[C@@H](O[C@H]7[C@H](OC)[C@@H](OC)[C@@H](O[C@H]8[C@H](OC)[C@@H](OC)[C@@H](O[C@H]1[C@H](OC)[C@H]2OC)O[C@@H]8COC)O[C@@H]7COC)O[C@@H]6COC)O[C@@H]5COC)O[C@@H]4COC)O[C@@H]3COC [TRIMEB, Heptakis (2,3,6-tri-O-methyl)-β-cyclodextrin] | – | 7300 ± 200 | 11300 ± 300 | 14700 ± 400 | 19000 ± 200 | –
Randomly methylated β-cyclodextrin [RAMEB] | – | 2300 ± 300 | 5200 ± 300 | 7000 ± 400 | 9700 ± 500 | Effect on cell viability (metabolic activity) [3]: significant reduction in metabolic activity; Effect on cell viability (metabolic activity) [4]: significant reduction in metabolic activity
COC[C@H]1O[C@@H]2O[C@H]3[C@H](O)[C@@H](OC)[C@@H](O[C@H]4[C@H](O)[C@@H](OC)[C@@H](O[C@H]5[C@H](O)[C@@H](OC)[C@@H](O[C@H]6[C@H](O)[C@@H](OC)[C@@H](O[C@H]7[C@H](O)[C@@H](OC)[C@@H](O[C@H]8[C@H](O)[C@@H](OC)[C@@H](O[C@H]1[C@H](O)[C@H]2OC)O[C@@H]8COC)O[C@@H]7COC)O[C@@H]6COC)O[C@@H]5COC)O[C@@H]4COC)O[C@@H]3COC [DIMEB-50, Heptakis (2,6-di-O-methyl)-β-cyclodextrin] | – | 1200 ± 200 | 8500 ± 200 | 9400 ± 400 | 11900 ± 300 | Hemolytic EC50 ([5]; plasma CHO 2.22 mM, HDL 1.13 mM, TG 0.48 mM): 18000 ± 200 µg/mL; Hemolytic EC50 ([5]; plasma CHO 4.38 mM, HDL 0.58 mM, TG 1.08 mM): 22400 ± 400 µg/mL; EC50DIMEB (hemolytic potency) ([2]; 5 mg/mL BSA (Figure 2)): 1380 µg/mL (≈ 1040 µM); EC50DIMEB (hemolytic potency) ([2]; 10 mg/mL bovine serum albumin (BSA) (Figure 2)): 1530 µg/mL (≈ 1150 µM); EC50DIMEB (hemolytic potency) ([2]; 100-µL plasma resulting in 5 mg/mL protein concentration in the mixture (Figure 2)): 9380 µg/mL; EC50DIMEB (hemolytic potency) ([2]; 200-µL plasma resulting in 10 mg/mL protein concentration in the mixture (Figure 2)): 11960 µg/mL; Hemolytic EC50 ([2]; RBCs-washed, 200 μL plasma added, plasma CHO 0.76 mM, HDL 0.25 mM, TG 0.13 mM, RBC count 5 × 10^7): 12600 ± 200 µg/mL; Hemolytic EC50 ([2]; RBCs-washed, no plasma added, RBC count 5 × 10^7): 1320 ± 100 µg/mL
